Structures are written as SMILES.

The target in the first assay is IRAK4 (Homo sapiens (Human), UniProt Q9NWZ3). Description: IRAK-4 biochemical kinase assay, AlphaScreen format.
Chain of IRAK4 (Q9NWZ3 whole entry, species assumed): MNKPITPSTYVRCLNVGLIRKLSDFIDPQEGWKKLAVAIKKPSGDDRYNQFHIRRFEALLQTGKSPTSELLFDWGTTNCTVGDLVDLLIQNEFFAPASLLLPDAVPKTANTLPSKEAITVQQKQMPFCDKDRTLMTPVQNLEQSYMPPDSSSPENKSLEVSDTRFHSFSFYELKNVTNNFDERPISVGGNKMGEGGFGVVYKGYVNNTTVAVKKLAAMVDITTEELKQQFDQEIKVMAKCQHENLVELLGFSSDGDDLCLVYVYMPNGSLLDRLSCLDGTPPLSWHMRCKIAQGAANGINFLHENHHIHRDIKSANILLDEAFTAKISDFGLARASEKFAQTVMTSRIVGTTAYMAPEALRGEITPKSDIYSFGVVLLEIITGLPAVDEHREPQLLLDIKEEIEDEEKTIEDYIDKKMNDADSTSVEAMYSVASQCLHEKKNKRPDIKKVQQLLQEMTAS
Conditions: not given
The procedure: The biochemical assay is in a AlphaScreen format. The kinase reaction is based on the IRAK-4 phosphorylation of a biotin labeled peptide. The phosphopeptide is incubated with anti-phosphothreonine antibody as well as streptavidin- and protein A-coated beads. Binding of the protein-A coated beads to the antibody and the streptavidin beads to the peptide, leads to an energy transfer from one bead to the other, ultimately producing a luminescent/fluorescent signal.
In general terms: Alpha assays give light when donor and acceptor beads are brought close together.
Compound `O=C1Nc2ccccc2OCCCCCCCn2cc(cn2)-c2nc1cs2` [Compound 6] had an IC50 of less than 1 µM.

Still in this assay, the particulars now being: 1 nM IRAK4, 1.6 μM peptide, 10 μM ATP, 3.5 h at RT; class symbols.
`CNC(=O)c1ccc2c(c1)NC(=O)c1csc(n1)-c1ccnc(c1)NCCCCCO2` [Compound 17]: the IC50 is less than 0.1 µM. Consider `CCOC(=O)CCN1CCCc2cc(ccn2)-c2nc(cs2)C(=O)Nc2cn(C3CCOCC3)nc2C(=O)NCC1` [Example 180], for which the IC50 is less than 0.1 µM.

The compound `CN(C)CCNC(=O)c1ccc2c(c1)OCCCCCNc1cc(ccn1)-c1nc(cs1)C(=O)N2` [Compound 25] registered an IC50 of less than 0.1 µM.

As to `O=C1Nc2ccccc2OCCCCCCCn2cc(cn2)-c2nc1co2` [Compound 8], the IC50 was less than 0.1 µM. The same measure, in the same setting: as for `O=C1Nc2cn(C3CCOCC3)nc2C(=O)NCCCCCOc2cc(ccn2)-c2nc1co2` [Compound 38], the figure is less than 0.1 µM; as for `CC(C)(C)C(=O)N1CCCc2cc(ccn2)-c2nc(cs2)C(=O)Nc2cn(C3CCOCC3)nc2C(=O)NCC1` [Example 182], less than 1 µM. Same read-out and setting: as for `O=C1Nc2cc(Br)ccc2OCCCCCNc2cc(ccn2)-c2nc1cs2` [Example 73], the figure is less than 0.1 µM; as for `O=C1c2coc(n2)-c2ccnc(c2)OCCCCOCC2CCCN12` (centres unmarked) [Example 104], less than 10 µM.

As to `O=C(NCCN1CCCCC1)c1ccc2c(c1)NC(=O)c1csc(n1)-c1ccnc(c1)NCCCCCO2` [Compound 18], the IC50 was less than 0.1 µM. The same measure, in the same setting: as for `Cn1cc2c(n1)C(=O)NCCCCCOc1cc(ccn1)-c1nc(co1)C(=O)N2` [Compound 37], the figure is less than 0.1 µM; as for `O=C1Nc2ccccc2OCCCCCCc2cc(ccn2)-c2nc1co2` [Compound 5], less than 0.1 µM; as for `CC(C)N1CCCc2cc(ccn2)-c2nc(cs2)C(=O)Nc2cn(C3CCOCC3)nc2C(=O)NCC1` [Example 174], less than 0.1 µM. On the same count and under the same terms, the same measure for `CCN1CCCCCCCCNC(=O)c2csc(n2)-c2ccnc1c2` [Example 67]: less than 1 µM; for `CC1CCCCNc2cc(ccn2)-c2nc(co2)C(=O)Nc2ccccc2O1` (centres unmarked) [Example 69]: less than 0.1 µM. With `O=C(O)c1ccc2c(c1)NC(=O)c1csc(n1)-c1ccnc(c1)NCCCCCO2` [Compound 15], the IC50 was less than 10 µM. On the same count and under the same terms, the same measure for `O=C1Nc2ccccc2OCCCCCOc2cc(ccn2)-c2nc1co2` [Compound 3]: less than 1 µM. The same measure, in the same setting: the same measure for `Cn1cc2c(n1)C(=O)N(COCC[Si](C)(C)C)CCCCOc1cc(ccn1)-c1nc(cn1COCC[Si](C)(C)C)C(=O)N2` [Example 93]: less than 10 µM; for `CN1CCOCCNC(=O)c2nn(CCN3CCOCC3)cc2NC(=O)c2csc(n2)-c2ccnc1c2` [Example 220]: less than 0.1 µM. As for `CN(C)C(=O)N1CCCc2cc(ccn2)-c2nc(cs2)C(=O)Nc2cn(C3CCOCC3)nc2C(=O)NCC1` [Example 187], the IC50 is less than 1 µM. Still for that read-out and setting: as for `CC(C)(CO)C(=O)N1CCCc2cc(ccn2)-c2nc(cs2)C(=O)Nc2cn(C3CCOCC3)nc2C(=O)NCC1` [Example 185], the figure is less than 0.1 µM; as for `O=C1NCCCCCCCCCn2cc(cn2)-c2nc1co2` [Compound 9], less than 1 µM; as for `CN(C)C1CCN(C(=O)c2ccc3c(c2)NC(=O)c2csc(n2)-c2ccnc(c2)NCCCCCO3)C1` (centres unmarked) [Compound 21], less than 0.1 µM.

On to `O=C1Nc2cn(C3CCOCC3)nc2C(=O)NCCOCCOc2cc(ccn2)-c2cccc1c2` [Example 210], for which the IC50 is less than 0.1 µM. Compound `NC(=O)CN1CCCc2cc(ccn2)-c2nc(cs2)C(=O)Nc2cn(C3CCOCC3)nc2C(=O)NCC1` [Example 175] came in with an IC50 of less than 1 µM. Take `Cn1cc2c(n1)C(=O)NCCOCCOc1cc(ccn1)-c1nc(co1)C(=O)N2` [Compound 35]: the IC50 is less than 0.1 µM. Same read-out and setting: the same measure for `CN1CCC(CCn2ncc3c2C(=O)NCCOCCOc2cc(ccn2)-c2nc(cs2)C(=O)N3)CC1` [Example 156]: less than 10 µM. Same read-out and setting: as for `CC1CCCCOc2ccccc2NC(=O)c2coc(n2)-c2ccnc(c2)N1` (centres unmarked) [Compound 10], the figure is less than 0.1 µM; as for `Cn1cc2c(n1)C(=O)NCCCCCNc1cc(ccn1)-c1nc(co1)C(=O)N2` [Compound 33], less than 0.1 µM. On the same count and under the same terms, the same measure for `O=C1Nc2cc(CCCN3CCCCC3)ccc2OCCCCCNc2cc(ccn2)-c2nc1cs2` [Compound 26]: less than 0.1 µM; for `O=C1Nc2ccccc2OC2CCC(CCc3cc(ccn3)-c3nc1co3)CC2` [Example 81]: less than 0.1 µM.

As to `O=C1Nc2cn(C3CCOCC3)nc2C(=O)NCCCCOc2cc(ccn2)-c2nc1co2` [Compound 36], the IC50 is less than 0.1 µM. Same read-out and setting: as for `O=C1c2csc(n2)-c2ccnc(c2)OCCCCOCC2CCCN12` (centres unmarked) [Example 106], the figure is less than 10 µM; as for `O=C1CCc2cc(ccn2)-c2nc(cs2)C(=O)Nc2cn(C3CCOCC3)nc2C(=O)NCCN1` [Example 225], less than 0.1 µM; as for `Cn1cc2c(n1)C(=O)NCCCCNc1cc(ccn1)-c1nc(co1)C(=O)N2` [Compound 31], less than 0.1 µM. In the case of `C[Si](C)(C)CCOCn1cc2nc1-c1ccnc(c1)CCCCCNC(=O)c1nn(C3CCOCC3)cc1NC2=O` [Example 98], the IC50 is less than 10 µM. On the same count and under the same terms, the same measure for `NC(=O)CCN1CCCc2cc(ccn2)-c2nc(cs2)C(=O)Nc2cn(C3CCOCC3)nc2C(=O)NCC1` [Example 181]: less than 0.1 µM; for `CN1CCCCCOc2ccccc2NC(=O)c2coc(n2)-c2ccnc1c2` [Compound 11]: less than 1 µM. Still for that read-out and setting: the same measure for `CC(C)(C)OC(=O)N1CCC(CCn2ncc3c2C(=O)NCCOCCOc2cc(ccn2)-c2nc(cs2)C(=O)N3)CC1` [Example 157]: less than 10 µM; for `Cn1cc2c(n1)C(=O)NCCOCCOc1cc(ccn1)-c1csc(n1)C(=O)N2` [Example 213]: less than 10 µM; for `Cn1cc2c(n1)C(=O)NCCCCOc1cnccc1-c1nc(co1)C(=O)N2` [Example 62]: less than 1 µM.

Consider `CN1CCN(CCn2ncc3c2C(=O)NCCOCCOc2cc(ccn2)-c2nc(cs2)C(=O)N3)CC1` [Example 141], for which the IC50 was less than 10 µM.

`Cn1cc(N2CCCCCOc3cnccc3-c3nc(co3)C2=O)cn1` [Compound 61] showed an IC50 of less than 1 µM. For the compound `O=C1NCC2CCC(CC2)OCCNc2cc(ccn2)-c2nc1co2` [Example 85], the IC50 was less than 1 µM.

On to `CC(C)(C)OC(=O)NCCC(=O)N1CCCc2cc(ccn2)-c2nc(cs2)C(=O)Nc2cn(C3CCOCC3)nc2C(=O)NCC1` [Example 171], for which the IC50 is less than 0.1 µM.

`CN1CCOCCNC(=O)c2nn(C)cc2NC(=O)c2csc(n2)-c2ccnc1c2` [Example 222] gave an IC50 of less than 0.1 µM.

`O=C(NCCN1CCOCC1)c1ccc2c(c1)NC(=O)c1csc(n1)-c1ccnc(c1)NCCCCCO2` [Compound 19] returned an IC50 of less than 0.1 µM. Same read-out and setting: as for `CN1CCOCCNC(=O)c2nn(C3CCOCC3)cc2NC(=O)c2csc(n2)-c2ccnc1c2` [Example 219], the figure is less than 0.1 µM. Still for that read-out and setting: the same measure for `CN1CCOCCNC(=O)c2nn(CCN3CCCCC3)cc2NC(=O)c2csc(n2)-c2ccnc1c2` [Example 221]: less than 0.1 µM.

The same assay, now with this note: 1 nM IRAK4, 1.6 μM peptide, 10 μM ATP, 3.5 h at RT; given as numeric bound.
Compound `O=C1c2coc(n2)-c2ccncc2OCCCN1CCCN1CCCCC1` [Example 102] had an IC50 of more than 10 µM. Still for that read-out and setting: the same measure for `O=C1c2coc(n2)-c2ccnc(c2)OCCCCCCN1CCN1CCCCC1` [Compound 56]: more than 10 µM; for `COC(=O)c1ccc2c(c1)NC(=O)c1csc(n1)-c1ccnc(c1)NCCCCCO2` [Compound 14]: more than 10 µM; for `CCn1cc(N2CCCCCCOc3cc(ccn3)-c3nc(co3)C2=O)cn1` [Compound 50]: more than 10 µM.

One may read the IC50 as the concentration needed to halve the response being measured. Higher therefore signals weaker potency.

Source of the values: patent US9617282B2, “Macrocyclic compounds as IRAK4 inhibitors for the treatment of inflammatory diseases” (BIOGEN MA INC., priority 2013, dated 2017).
